Test results reported in publication PMC8694143 (Microbiology Spectrum, 2021).

Key:
Assay in all cases: MIC determination in broth
Assay type in all cases: cell-based, Staphylococcus aureus
MRSA ATCC BAA-44 = conditions: STIP3 variants, highest conc. tested 100 μg/mL; cation-adjusted MH broth, ~10^5 CFU/mL, 2-fold dilution series, 37°C, 16 h
Experimental: (§1) M. luteus ATCC 4698, S. aureus ATCC 29213, a panel of 7 MRSA (ATCC MP-2) strains, which includes ATCC BAA-41, BAA-42, BAA-44, BAA-1683, BAA-2094, BAA-2313, and 33592, and a series of additional bacterial isolates from human and veterinary cases were used in this study (Table S6). Bacterial strains were routinely grown in lysogeny broth (LB: 10 g/L tryptone, 5 g/L yeast extract, 10 g/L NaCl) at 30°C (M. luteus) or 37°C (Staphylococcus spp.) prior to use in specific experiments described below.
(§2) The MICs were measured for bioactive peptides identified from the initial screen. Cation-adjusted Mueller-Hinton (MH) broth was used as the growth medium for MIC determination experiments. Bacterial cultures were diluted to an OD of 5 × 10^−4 (∼10^5 CFU/mL) in 200 μL MH broth mixed with peptides in a 2-fold dilution series arrayed in 96-well plates. Plates were incubated without shaking at 30 or 37°C depending on the organism.

MRSA ATCC BAA-1683 = conditions: STIP3 variants, highest conc. tested 100 μg/mL; cation-adjusted MH broth, ~10^5 CFU/mL, 2-fold dilution series, 37°C, 16 h
Experimental: as §1, §2

S. aureus ATCC 29213 = conditions: STIP3 variants, highest conc. tested 100 μg/mL; cation-adjusted MH broth, ~10^5 CFU/mL, 2-fold dilution series, 37°C, 16 h
Experimental: as §1, §2

MRSA ATCC BAA-42 = conditions: STIP3 variants, highest conc. tested 100 μg/mL; cation-adjusted MH broth, ~10^5 CFU/mL, 2-fold dilution series, 37°C, 16 h
Experimental: as §1, §2

MRSA ATCC BAA-41 = conditions: STIP3 variants, highest conc. tested 100 μg/mL; cation-adjusted MH broth, ~10^5 CFU/mL, 2-fold dilution series, 37°C, 16 h
Experimental: as §1, §2

MRSA ATCC BAA-2313 = conditions: STIP3 variants, highest conc. tested 100 μg/mL; cation-adjusted MH broth, ~10^5 CFU/mL, 2-fold dilution series, 37°C, 16 h
Experimental: as §1, §2

MRSA ATCC BAA-2094 = conditions: STIP3 variants, highest conc. tested 100 μg/mL; cation-adjusted MH broth, ~10^5 CFU/mL, 2-fold dilution series, 37°C, 16 h
Experimental: as §1, §2

MRSA ATCC 33592 = conditions: Table S5; STIP3 variants, highest conc. tested 100 μg/mL; cation-adjusted MH broth, ~10^5 CFU/mL, 2-fold dilution series, 37°C, 16 h
Experimental: as §1, §2

Which “MIC, S. aureus ATCC BAA 44 (SCCmec I)” value (MRSA ATCC BAA-44) does the source give for “TVGGLVKWILDWVKKFA [STIP3-10, rationally designed STIP3-1 variant]” here?
The value was 200 mg/L.

What about the “MIC, S. aureus ATCC BAA 1683 (SCCmec IV)” value (MRSA ATCC BAA-1683) of the same sequence?
The value was “> (The > symbol indicates that no inhibition was observed at 100 μg/mL for the STIP3 variants)”.

And the “MIC, S. aureus ATCC 29213” value (S. aureus ATCC 29213)?
Its value is 100 mg/L.

What about the “MIC, S. aureus ATCC BAA 42 (SCCmec VI)” value (MRSA ATCC BAA-42) of the same sequence?
Its value is 25 mg/L.

What about the “MIC, S. aureus ATCC BAA 41 (SCCmec II)” value (MRSA ATCC BAA-41) of the same sequence?
The value was 100 mg/L.

And the “MIC, S. aureus ATCC BAA 2313 (SCCmec XI)” value (MRSA ATCC BAA-2313)?
Its value is 50 mg/L.

What about the “MIC, S. aureus ATCC BAA 2094 (SCCmec V)” value (MRSA ATCC BAA-2094) of the same sequence?
The value was 100 mg/L.

And the “MIC, S. aureus ATCC 33592 (SCCmec III)” value (MRSA ATCC 33592)?
Its value is 100 mg/L.

What does the source list for “TVGGLVKWILKAVKKFA [STIP3-13, rationally designed STIP3-1 variant]”?
MIC, S. aureus ATCC BAA 44 (SCCmec I) (MRSA ATCC BAA-44): 25 mg/L; MIC, S. aureus ATCC BAA 1683 (SCCmec IV) (MRSA ATCC BAA-1683): 25 mg/L; MIC, S. aureus ATCC 29213 (S. aureus ATCC 29213): 25 mg/L; MIC, S. aureus ATCC BAA 42 (SCCmec VI) (MRSA ATCC BAA-42): 25 mg/L; MIC, S. aureus ATCC BAA 41 (SCCmec II) (MRSA ATCC BAA-41): 12.5 mg/L; MIC, S. aureus ATCC BAA 2313 (SCCmec XI) (MRSA ATCC BAA-2313): 25 mg/L; MIC, S. aureus ATCC BAA 2094 (SCCmec V) (MRSA ATCC BAA-2094): 25 mg/L; MIC, S. aureus ATCC 33592 (SCCmec III) (MRSA ATCC 33592): 25 mg/L

Which results are given for “TVGGLVKWILKTVKKFA [STIP3-3, rationally designed STIP3-1 variant]”?
MIC, S. aureus ATCC BAA 44 (SCCmec I) (MRSA ATCC BAA-44): 25 mg/L; MIC, S. aureus ATCC BAA 1683 (SCCmec IV) (MRSA ATCC BAA-1683): 50 mg/L; MIC, S. aureus ATCC 29213 (S. aureus ATCC 29213): 25 mg/L; MIC, S. aureus ATCC BAA 42 (SCCmec VI) (MRSA ATCC BAA-42): 50 mg/L; MIC, S. aureus ATCC BAA 41 (SCCmec II) (MRSA ATCC BAA-41): 25 mg/L; MIC, S. aureus ATCC BAA 2313 (SCCmec XI) (MRSA ATCC BAA-2313): 50 mg/L; MIC, S. aureus ATCC BAA 2094 (SCCmec V) (MRSA ATCC BAA-2094): 25 mg/L; MIC, S. aureus ATCC 33592 (SCCmec III) (MRSA ATCC 33592): 25 mg/L

How did the “MIC, S. aureus ATCC BAA 44 (SCCmec I)” value (MRSA ATCC BAA-44) turn out when “TVGGLVKWILNTVKKFA [STIP3-4, rationally designed STIP3-1 variant]” was run?
Its value is 50 mg/L.

What about the “MIC, S. aureus ATCC BAA 1683 (SCCmec IV)” value (MRSA ATCC BAA-1683) of the same sequence?
Its value is 100 mg/L.

What about the “MIC, S. aureus ATCC 29213” value (S. aureus ATCC 29213) of the same sequence?
Its value is 100 mg/L.

And the “MIC, S. aureus ATCC BAA 42 (SCCmec VI)” value (MRSA ATCC BAA-42)?
Its value is 50 mg/L.

And the “MIC, S. aureus ATCC BAA 41 (SCCmec II)” value (MRSA ATCC BAA-41)?
Its value is 50 mg/L.

And the “MIC, S. aureus ATCC BAA 2313 (SCCmec XI)” value (MRSA ATCC BAA-2313)?
Its value is 100 mg/L.

And the “MIC, S. aureus ATCC BAA 2094 (SCCmec V)” value (MRSA ATCC BAA-2094)?
The value was 50 mg/L.

And the “MIC, S. aureus ATCC 33592 (SCCmec III)” value (MRSA ATCC 33592)?
Its value is 50 mg/L.

With “TVGVLVKWILNVVAKFA [STIP3-24, rationally designed STIP3-1 variant]” as the sequence, how does the “MIC, S. aureus ATCC BAA 44 (SCCmec I)” value (MRSA ATCC BAA-44) read?
Its value is “> (The > symbol indicates that no inhibition was observed at 100 μg/mL for the STIP3 variants)”.

What about the “MIC, S. aureus ATCC BAA 1683 (SCCmec IV)” value (MRSA ATCC BAA-1683) of the same sequence?
The value was “> (The > symbol indicates that no inhibition was observed at 100 μg/mL for the STIP3 variants)”.

What about the “MIC, S. aureus ATCC 29213” value (S. aureus ATCC 29213) of the same sequence?
The value was “> (The > symbol indicates that no inhibition was observed at 100 μg/mL for the STIP3 variants)”.

What about the “MIC, S. aureus ATCC BAA 42 (SCCmec VI)” value (MRSA ATCC BAA-42) of the same sequence?
The value was “> (The > symbol indicates that no inhibition was observed at 100 μg/mL for the STIP3 variants)”.

And the “MIC, S. aureus ATCC BAA 41 (SCCmec II)” value (MRSA ATCC BAA-41)?
Its value is “> (The > symbol indicates that no inhibition was observed at 100 μg/mL for the STIP3 variants)”.

What about the “MIC, S. aureus ATCC BAA 2313 (SCCmec XI)” value (MRSA ATCC BAA-2313) of the same sequence?
Its value is “> (The > symbol indicates that no inhibition was observed at 100 μg/mL for the STIP3 variants)”.

What about the “MIC, S. aureus ATCC BAA 2094 (SCCmec V)” value (MRSA ATCC BAA-2094) of the same sequence?
The value was “> (The > symbol indicates that no inhibition was observed at 100 μg/mL for the STIP3 variants)”.

And the “MIC, S. aureus ATCC 33592 (SCCmec III)” value (MRSA ATCC 33592)?
Its value is “> (The > symbol indicates that no inhibition was observed at 100 μg/mL for the STIP3 variants)”.

Which results are given for “TVKALVKWILKTVAKFA [STIP3-19, rationally designed STIP3-1 variant]”?
MIC, S. aureus ATCC BAA 44 (SCCmec I) (MRSA ATCC BAA-44): 25 mg/L; MIC, S. aureus ATCC BAA 1683 (SCCmec IV) (MRSA ATCC BAA-1683): 25 mg/L; MIC, S. aureus ATCC 29213 (S. aureus ATCC 29213): 50 mg/L; MIC, S. aureus ATCC BAA 42 (SCCmec VI) (MRSA ATCC BAA-42): 50 mg/L; MIC, S. aureus ATCC BAA 41 (SCCmec II) (MRSA ATCC BAA-41): 50 mg/L; MIC, S. aureus ATCC BAA 2313 (SCCmec XI) (MRSA ATCC BAA-2313): 25 mg/L; MIC, S. aureus ATCC BAA 2094 (SCCmec V) (MRSA ATCC BAA-2094): 25 mg/L; MIC, S. aureus ATCC 33592 (SCCmec III) (MRSA ATCC 33592): 25 mg/L

What does the source list for “TVKALVKWILKTVAKFW [STIP3-21, rationally designed STIP3-1 variant]”?
MIC, S. aureus ATCC BAA 44 (SCCmec I) (MRSA ATCC BAA-44): 25 mg/L; MIC, S. aureus ATCC BAA 1683 (SCCmec IV) (MRSA ATCC BAA-1683): 12.5 mg/L; MIC, S. aureus ATCC 29213 (S. aureus ATCC 29213): 25 mg/L; MIC, S. aureus ATCC BAA 42 (SCCmec VI) (MRSA ATCC BAA-42): 25 mg/L; MIC, S. aureus ATCC BAA 41 (SCCmec II) (MRSA ATCC BAA-41): 25 mg/L; MIC, S. aureus ATCC BAA 2313 (SCCmec XI) (MRSA ATCC BAA-2313): 12.5 mg/L; MIC, S. aureus ATCC BAA 2094 (SCCmec V) (MRSA ATCC BAA-2094): 12.5 mg/L; MIC, S. aureus ATCC 33592 (SCCmec III) (MRSA ATCC 33592): 25 mg/L
